As usually defined, the Ki is the dissociation constant of the complex between target and ligand, obtained from inhibition or displacement.

The values that follow come from ChEMBL document CHEMBL3992519 (J Med Chem, 2017).

Data set [1] in a line: Solubility of the compound in water. The following applies: buffer. The class given is physicochemical.
Data set [2] can be described thus: Solubility of the compound in saline. The class given is physicochemical. The following applies: buffer.
For data set [3], the target named is T1, Orexin/Hypocretin receptor type 1 (Homo sapiens, UniProt O43613).
T1 sequence (O43613 whole entry): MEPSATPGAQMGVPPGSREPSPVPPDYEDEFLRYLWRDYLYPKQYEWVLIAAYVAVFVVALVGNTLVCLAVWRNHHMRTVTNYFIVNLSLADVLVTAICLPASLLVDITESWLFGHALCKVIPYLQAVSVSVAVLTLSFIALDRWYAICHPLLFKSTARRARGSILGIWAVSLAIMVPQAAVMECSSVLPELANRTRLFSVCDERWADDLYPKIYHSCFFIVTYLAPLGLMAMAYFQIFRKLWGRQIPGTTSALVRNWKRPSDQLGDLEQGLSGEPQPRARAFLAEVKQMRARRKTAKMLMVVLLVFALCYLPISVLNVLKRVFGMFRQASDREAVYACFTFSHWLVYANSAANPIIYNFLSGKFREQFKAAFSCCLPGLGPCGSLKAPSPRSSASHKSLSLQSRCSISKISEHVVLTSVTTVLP
Kind of data set: Antagonist activity at human OX1R expressed in CHOK1 cells assessed as inhibition of orexin A-induced intracellular calcium level preincubated for 15 mins followed by orexin A addition by Fura-2-AM dye based fluorescence assay. On the technique in general: A change in cytosolic calcium serves as a functional read-out for many receptors and channels.

Data set [4] is described as follows: Selectivity index, ratio of IC50 for human OX2R expressed in CHOK1 cells to IC50 for human OX1R expressed in CHOK1 cells.

For `COc1ccc2c3c1O[C@H]1[C@H](N(C)C(=O)/C=C/c4ccoc4)CC[C@@]4(O)[C@@H](C2)N(S(=O)(=O)c2cccc(F)c2)CC[C@]314`, the solubility result in data set [1] and in data set [2] was “Insoluble” in each case. In addition, the inhibition constant (Ki) in data set [3] was 7.6 nM. In addition, the “Ratio IC50” value in data set [4] is given as less than 88.4.

In the case of `COc1ccc2c3c1O[C@H]1[C@H](N(C)C(=O)/C=C/c4ccoc4)CC[C@@]4(O)[C@@H](C2)N(S(=O)(=O)c2ccc(Br)cc2)CC[C@]314`, the solubility entry in data set [1] and in data set [2] was “Insoluble” in each case. Moreover, in data set [3], the Ki is 6.21 nM. In data set [4], the “Ratio IC50” value is less than 88.4.

Take `COc1ccc(S(=O)(=O)N2CC[C@]34c5c6ccc(OC)c5O[C@H]3[C@H](N(C)C(=O)/C=C/c3ccoc3)CC[C@@]4(O)[C@H]2C6)cc1`: the solubility result in data set [1] and in data set [2] was “Insoluble” each time. Moreover, in data set [3], the Ki came to 8.99 nM. Besides, the “Ratio IC50” value in data set [4] is reported as less than 88.4.

For `COc1ccc2c3c1O[C@H]1[C@H](N(C)C(=O)/C=C/c4ccoc4)CC[C@@]4(O)[C@@H](C2)N(S(=O)(=O)c2ccc(F)cc2)CC[C@]314`, the solubility result in data set [1] and in data set [2] was “Insoluble” each time. Moreover, the Ki in data set [3] worked out at 4.05 nM. Also, the “Ratio IC50” value in data set [4] is listed as less than 88.4.

As for `COc1ccc2c3c1O[C@H]1[C@H](N(C)C(=O)/C=C/c4ccoc4)CC[C@@]4(O)[C@@H](C2)N(S(=O)(=O)c2ccccc2Cl)CC[C@]314`, the solubility result in data set [1] and in data set [2] was “Insoluble” each time. Also, the Ki in data set [3] turned out to be 1.93 nM. In data set [4], the “Ratio IC50” value was less than 88.4.

As to `COc1ccc2c3c1O[C@H]1[C@H](N(C)C(=O)/C=C/c4ccoc4)CC[C@@]4(O)[C@@H](C2)N(S(=O)(=O)c2ccc([N+](=O)[O-])cc2)CC[C@]314`, the solubility entry in data set [1] and in data set [2] was “Insoluble” each time. In data set [3], the inhibition constant (Ki) came out at 12.5 nM. Also, the “Ratio IC50” value in data set [4] is given as less than 88.4.

Regarding `COc1ccc2c3c1O[C@H]1[C@H](N(C)C(=O)/C=C/c4ccoc4)CC[C@@]4(O)[C@@H](C2)N(S(=O)(=O)C2CC2)CC[C@]314`, the solubility entry in data set [1] and in data set [2] was “Insoluble” each time. Further, the Ki in data set [3] worked out at 12.1 nM. Further, the “Ratio IC50” value in data set [4] is recorded as less than 88.4.

`COc1ccc2c3c1O[C@H]1[C@H](N(C)C(=O)/C=C/c4ccoc4)CC[C@@]4(O)[C@@H](C2)N(S(=O)(=O)c2ccccc2F)CC[C@]314`: the solubility result in data set [1] and in data set [2] was “Insoluble” in each case. Also, in data set [3], the inhibition constant (Ki) came out at 2.07 nM. Further, in data set [4], the “Ratio IC50” value is less than 88.4.

`COc1ccc2c3c1O[C@H]1[C@H](N(C)C(=O)/C=C/c4ccoc4)CC[C@@]4(O)[C@@H](C2)N(S(=O)(=O)c2cccc(Br)c2)CC[C@]314`: the solubility result in data set [1] and in data set [2] was “Insoluble” in each case. In data set [3], the Ki came out at 2.27 nM. Also, in data set [4], the “Ratio IC50” value is less than 88.4.

In the case of `CN(C)c1ccc(S(=O)(=O)N2CC[C@]34c5c6ccc(O)c5O[C@H]3[C@H](N(C)C(=O)/C=C/c3ccoc3)CC[C@@]4(O)[C@H]2C6)cc1`, in data set [3], the Ki stood at 320 nM.

Turning to `COc1ccc2c3c1O[C@H]1[C@H](N(C)C(=O)/C=C/c4cccnc4)CC[C@@]4(O)[C@@H](C2)N(S(=O)(=O)c2ccccc2N(C)C)CC[C@]314`, the Ki in data set [3] is 42.3 nM.

Consider `CN(Cc1ccccc1)[C@@H]1CC[C@@]2(O)[C@H]3Cc4ccc(O)c5c4[C@@]2(CCN3CC2CC2)[C@H]1O5.Cl`, for which the solubility entry in data set [1] and in data set [2] was “Insoluble” each time. Moreover, the “Ratio IC50” value in data set [4] was less than 88.4.

Regarding `COc1ccc2c3c1O[C@H]1[C@H](N(C)C(=O)/C=C/c4ccccn4)CC[C@@]4(O)[C@@H](C2)N(S(=O)(=O)c2ccccc2N(C)C)CC[C@]314`, the Ki in data set [3] turned out to be 1.36 nM.
